Patent publication US20180168157A1, “ANTIMICROBIAL COMPOSITIONS COMPRISING FOOD APPROVED ANTIMICROBIALS AND ZINC PYRITHIONE” (Janssen Pharmaceutica NV, priority 2015, published 2018)

Legend:
Assay type in all cases: cell-based
[1] = test system: Escherichia coli LMG 8063; assay: Poison plate assay (MIC and synergy index), Escherichia coli; details: ppm total active ingredient, nutrient broth pH 6.8, 28° C., evaluation 7 days after inoculation
Source text: (§1) Experiment 1: Poison Plate Assay
(§2) In the test combinations above, product A is component (I), i.e. zinc pyrithione, and product B is a component (II), i.e. either sodium sulfite (II-a) or lysozyme (II-b).
(§3) Concentration series of total actives: a series of 24 concentrations increasing with steps of ⅓:0.27-0.35-0.47-0.63-0.84-1.13-1.50-2.00-2.67-3.56-4.75-6.33-8.44-11.25-15.00-20.00-26.70-35.60-47.46-63.28-84.38-112.50-150.00-200.00 ppm. • Culture medium: bacteria: nutrient broth (3 g beef extract and 5 g peptone in 1 liter deionised water, pH=6.8.) • Experimental set up: 96-well plates containing 300 μl pf inoculum plus 0.75 μl of a 400× concentrated stock solution of the test compounds per well. • Species of test organisms: Escherichia coli LMG 8063 • Staphylococcus aureus LMG 8195/ATCC 6538P • Inoculum: the nutrient medium is inoculated with an actively growing liquid culture of the test bacteria. • Culture conditions: 28° C., 70% relative humidity, incubation in darkness. • Evaluation: 7 days after inoculation. […]

[2] = test system: Staphylococcus aureus LMG 8195/ATCC 6538P; assay: Poison plate assay (MIC and synergy index), Staphylococcus aureus; details: ppm total active ingredient, nutrient broth pH 6.8, 28° C., evaluation 7 days after inoculation
Source text: as §1, §2, §3

[3] = test system: Saccharomyces cerevisiae CBS 8803; assay: Poison plate assay (MIC and synergy index), Saccharomyces cerevisiae; details: ppm total active ingredient, half strength potato dextrose broth, 28° C., evaluation 7 days after inoculation
Source text: wherein: • QA is the concentration of compound A in ppm, acting alone, which produced an end point (e.g. MIC), • Qa is the concentration of compound A in ppm, in the mixture, which produced an end point (e.g. MIC), • QB is the concentration of compound B in ppm, acting alone, which produced an end point (e.g. MIC), • Qb is the concentration of compound B in ppm, in the mixture, which produced an end point (e.g. MIC).
When the Synergy Index is greater than 1.0, antagonism is indicated. When the SI is equal to 1.0, additivity is indicated.

Compound	MIC-values in ppm (minimum inhibitory concentration) [1] [ppm]	MIC-values in ppm (minimum inhibitory concentration) [2] [ppm]	MIC-values in ppm (minimum inhibitory concentration) [3] [ppm]
[O-][n+]1ccccc1[S][Zn][S]c1cccc[n+]1[O-] [zinc pyrithione, bis(2-pyridylthio)zinc 1,1′dioxide]	3.60	2.00	2.00
O=S([O-])[O-].[Na+].[Na+] [sodium sulfite]	267		
O=S([O-])O.[Na+] [sodium bisulfite]			267
lysozyme		267	
